Experimental data as given in US11390603B2, “Crystalline forms of a biphenyl compound” (THERAVANCE BIOPHARMA R&D IP, LLC, priority 2005, dated 2022).

Experiments:
[1] = six weeks at −20° C. (closed) and 40° C./75% RH (open and closed)
Experimental: At specific intervals, the entire contents of a representative vial was analyzed by the following HPLC method: […]

[2] = pH 5
Experimental: A solution was prepared with 0.5 mg/mL freebase equivalents (using a crystalline diphosphate salt prepared as described in Example 3) in 10 mM citrate buffered normal saline, pH 5. […] Less than 0.5% degradation was observed after storage for one month at 40° C./75% RH.

[3] = DSC trace, 10° C./min
Experimental: Differential scanning calorimetry (DSC) was performed using a TA Instruments Model Q-10 module with a Thermal Analyst controller. Data were collected and analyzed using TA Instruments Thermal Solutions software. A sample of about 1-4 mg was accurately weighed into an aluminum pan with lid. The sample was evaluated using a linear heating ramp of 10° C./min from ambient temperature to approximately 300° C. The DSC cell was purged with dry nitrogen during use.

[4] = DMS trace
Experimental: A dynamic moisture sorption (DMS) assessment (also known as a moisture sorption-desorption profile) was performed using a VTI atmospheric microbalance, SGA-100 system (VTI Corp., Hialeah, Fla. 33016). A sample size of approximately 10 mg was used and the humidity was set at the ambient value at the start of the analysis. A typical DMS analysis consisted of three scans: ambient to 2% relative humidity (RH), 2% RH to 90% RH, 90% RH to 5% RH at a scan rate of 5% RH/step. The mass was measured every two minutes and the RH was changed to the next value (+/−5% RH) when the mass of the sample was stable to within 0.01% for 5 consecutive points.

| SMILES | solid state stability: change in chemical purity [1] | degradation of solution after storage ([2]; 0.5 mg/mL freebase equivalents in 10 mM citrate buffered normal saline, one month at 40° C./75% RH) | solubility of the crystalline salt ([2]; 10 mM citrate buffered normal saline) | temperature below which no thermal decomposition occurs [3] [°C] | sorption/desorption profile and hygroscopicity [4] | weight gain when exposed to 2-90% RH [4] [%] | weight gain in the humidity range of 40-75% RH [4] [%] |
| --- | --- | --- | --- | --- | --- | --- | --- |
| CN(CCN1CCC(OC(=O)Nc2ccccc2-c2ccccc2)CC1)C(=O)c1ccc(CN2CCC(C(N)=O)CC2)cc1.O=P(O)(O)O.O=P(O)(O)O [Example 3, Crystalline Diphosphate Salt of Biphenyl-2-ylcarbamic Acid 1-(2-{[4-(4-Carbamoylpiperidin-1-ylmethyl)benzoyl]methylamino}ethyl)piperidin-4-yl Ester] | no detectable change in chemical purity | Less than 0.5% | greater than 40 mg/mL of freebase equivalent | ≥ 150 | reversible sorption/desorption profile with low hygroscopicity | 3.3 | 0.6 |
| CN(CCN1CCC(OC(=O)Nc2ccccc2-c2ccccc2)CC1)C(=O)c1ccc(CN2CCC(C(N)=O)CC2)cc1.O=S(=O)(O)O [Example 5, Crystalline Monosulfate Salt of Biphenyl-2-ylcarbamic Acid 1-(2-{[4-(4-Carbamoylpiperidin-1-ylmethyl)benzoyl]methylamino}ethyl)piperidin-4-yl Ester] | – | – | – | – | reversible sorption/desorption profile with low hygroscopicity | 10 | 1.8 |
| CN(CCN1CCC(OC(=O)Nc2ccccc2-c2ccccc2)CC1)C(=O)c1ccc(CN2CCC(C(N)=O)CC2)cc1.O=C(O)C(=O)O.O=C(O)C(=O)O [Example 7, Crystalline Dioxalate Salt of Biphenyl-2-ylcarbamic Acid 1-(2-{[4-(4-Carbamoylpiperidin-1-ylmethyl)benzoyl]methylamino}ethyl)piperidin-4-yl Ester] | – | – | – | – | reversible sorption/desorption profile with low hygroscopicity | 5.3 | 1.1 |
| CN(CCN1CCC(OC(=O)Nc2ccccc2-c2ccccc2)CC1)C(=O)c1ccc(CN2CCC(C(N)=O)CC2)cc1 [Example 10, Crystalline Freebase Biphenyl-2-ylcarbamic Acid 1-(2-{[4-(4-Carbamoylpiperidin-1-ylmethyl)benzoyl]methylamino}ethyl)piperidin-4-yl Ester (Form I)] | – | – | – | ≥ 80 | reversible sorption/desorption profile with low hygroscopicity | 10 | 1.2 |
| CN(CCN1CCC(OC(=O)Nc2ccccc2-c2ccccc2)CC1)C(=O)c1ccc(CN2CCC(C(N)=O)CC2)cc1 [Example 11, Crystalline Freebase Biphenyl-2-ylcarbamic Acid 1-(2-{[4-(4-Carbamoylpiperidin-1-ylmethyl)benzoyl]methylamino}ethyl)piperidin-4-yl Ester (Form II)] | – | – | – | ≥ 75 | reversible sorption/desorption profile with low hygroscopicity | 9 | 1.3 |
